Reference: patent publication US20210386709A1, “COMPOSITIONS AND METHODS FOR SUPPRESSING MSUT2” (United States Government As Represented By The Department …, priority 2020, published 2021)

Legend:
[1] = target: T1, MSUT2 ZF (Homo sapiens, UniProt Q6PJT7); assay: Fluorescence polarization assay of FAM-poly(A) RNA:MSUT2 ZF binding; settings: by FP assay; read-out: Ki for MSUT2 by FP assay
T1 construct: Targeted construct consisted of the c-terminal end (dark blue and amino acids 601-736) of MSUT2; made in house; host or cells: E. coli BL21 (DE3)
T1 sequence (Q6PJT7 601-736): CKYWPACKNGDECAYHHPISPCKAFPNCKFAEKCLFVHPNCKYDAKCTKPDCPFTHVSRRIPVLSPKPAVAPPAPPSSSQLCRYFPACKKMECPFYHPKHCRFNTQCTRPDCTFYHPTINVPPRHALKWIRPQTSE
Experimental: Fluorescence Polarization Assay. […] 2 μL of compound was transferred for a final concentration of 10 μM. […] Fluorescence polarization was calculated by first subtracting background from a buffer-only control well and then using the equation
Results and Discussion. A high-throughput fluorescence polarization assay for inhibition of poly(A):MSUT2 RNA interaction. […] In order to screen potential inhibitors of MSUT2 RBP and RNA by FP, fluorescent FAM (fluorescein amidite)-labeled poly(A)15 RNA (FAM-RNA) and recombinant MSUT2 ZF (zinc finger) protein expressing constructs were generated (FIG. 7a). […] Inhibition of the interaction results in unbound FAM-RNA tumbling at a relatively rapid rate and emitting non-polarized light (FIG. 7b).
To determine the concentrations of both MSUT2 ZF protein and FAM-RNA probe useful in the methods described herein, a two dimensional titration of protein and RNA concentrations in 96-well format was performed. […] Next, the binding constant between MSUT2 ZF and FAM-RNA was determined by holding FAM-RNA constant at 10 nM while increasing MSUT2 ZF concentration.
Identification and validation of MSUT2 inhibitory compounds from NIHCC library. […] IC50 of each of the previous 8 compounds was determined for PABPN1 using fluorescence polarization (FIG. 11), and a specificity ratio determined (Table 3). An Alpha Screen (AS) assay was developed as an orthogonal screen. Briefly, in this screen, biotinylated RNA binds streptavidin-coated donor beads, while GST-MSUT2 ZF binds glutathione-coated acceptor beads. When donor beads and acceptor beads are brought within close proximity of one another, laser excitation leads to fluorophore emission of the acceptor bead via excited singlet oxygen activating chemiluminescers in the acceptor beads. […] Toxicity of these compounds in a HEK cell model was determined using a standard Promega Cell Titer Glo assay.
Fluorescence Polarization Assay. […] of stock compound was transferred yielding 10 μM final concentration. […] Fluorescence polarization was calculated by first subtracting background from a buffer-only control well and then using the equation

[2] = target: T2, Soluble epoxide hydrolase (gene EPXH2) (Homo sapiens, UniProt P34913); settings: read-out: Ki (nM) for Known Target; cited from earlier work
T2 sequence (P34913 1-555): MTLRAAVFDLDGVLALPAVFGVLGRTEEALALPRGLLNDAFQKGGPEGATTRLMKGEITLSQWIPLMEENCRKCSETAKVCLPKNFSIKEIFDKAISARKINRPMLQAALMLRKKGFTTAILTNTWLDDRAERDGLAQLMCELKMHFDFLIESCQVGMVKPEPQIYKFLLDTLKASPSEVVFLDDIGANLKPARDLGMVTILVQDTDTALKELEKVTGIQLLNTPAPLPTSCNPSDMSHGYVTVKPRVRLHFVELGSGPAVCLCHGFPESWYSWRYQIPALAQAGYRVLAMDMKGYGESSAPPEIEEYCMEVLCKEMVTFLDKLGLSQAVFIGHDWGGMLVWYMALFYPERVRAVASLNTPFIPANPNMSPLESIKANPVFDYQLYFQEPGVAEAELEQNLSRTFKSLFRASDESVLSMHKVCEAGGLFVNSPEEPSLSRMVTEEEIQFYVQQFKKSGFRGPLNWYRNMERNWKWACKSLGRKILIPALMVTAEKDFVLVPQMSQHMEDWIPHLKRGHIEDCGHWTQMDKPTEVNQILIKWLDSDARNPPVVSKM

Ki [1]: 1020 nM
SMILES: O=c1c2ccccc2[se]n1-c1ccccc1 [Ebselen]
Ki [2]: 0.55 nM
